This is an account of results in patent US9663511B2, “Sphingosine 1-phosphate receptor antagonists” (ARROYO BIOSCIENCES, LLC, priority 2012, dated 2017).

Structures are written as SMILES. A value given as a limit tells only on which side of the number the result lay.

A short description of series [1]: In vitro plasma protein binding. It is filed as in vitro ADME, mouse. As to conditions: for mean fraction bound (%): mouse plasma, test concentration 5 nM.
A further series has as its target S1P2 receptor (Homo sapiens (Human), UniProt O95136). As to the kind of experiment: Antagonist assay (FLIPR TETRA, inhibition of reference agonist EC80) on S1P2. As to conditions: tested as the citrate salt. In kind it is cell-based. The protocol: (§1) Antagonist percentage inhibition determinations were obtained by assaying sample compounds and referencing the control (EC80) wells for each profiled (GPCR) which evaluated binding to S1P2 and S1P5 receptors. The samples were run using a single addition assay protocol. The protocol design is as follows.
(§2) Unless specified otherwise, the sample compounds were diluted in 100% anhydrous DMSO including all dilutions. The compounds were tested as the citrate salt (1 equivalent per molecule). If the sample compound is provided in a different solvent all master stock dilutions are performed in the specified solvent. All control wells contained identical solvent final concentrations as the sample compound wells.
(§3) The sample compounds were transferred from a master stock solution into a daughter plate that was used in the assay. Each sample compound was diluted into an assay buffer (1×HBSS with 20 mM HEPES, 2.5 mM Probenecid, and 0.4% Free Fatty Acid BSA) at an appropriate concentration to obtain final specified concentrations.
(§4) Using the EC80 values that were determined real-time, stimulated all pre-incubated sample compounds and reference antagonists (if applicable) were compared with the EC80 values of reference agonist. These were read for 180 seconds using the FLIPR^TETRA (This assay added reference agonist to respective wells-then fluorescences measurements were collected to calculate IC50 values). All plates were subjected to appropriate baseline corrections. Once baseline corrections were processed, maximum fluorescence values were exported and data manipulated to calculate percentage activation, percentage inhibition and Z′.

Series [2] can be described thus: Microsomal intrinsic clearance. As to conditions: for microsomal CLint at 1 μM / half-life at 1 μM: mouse, liver microsomes, mouse microsomes, test conc. 1 μM.
For another series, the target named is S1P5 receptor (Homo sapiens (Human), UniProt Q9H228). As to the kind of experiment: Antagonist assay (FLIPR TETRA, inhibition of reference agonist EC80) on S1P5. In kind it is cell-based. To be noted: tested as the citrate salt. As to the method:
as §1, §2, §3, §4

S1P5 receptor, sequence (Q9H228 whole entry): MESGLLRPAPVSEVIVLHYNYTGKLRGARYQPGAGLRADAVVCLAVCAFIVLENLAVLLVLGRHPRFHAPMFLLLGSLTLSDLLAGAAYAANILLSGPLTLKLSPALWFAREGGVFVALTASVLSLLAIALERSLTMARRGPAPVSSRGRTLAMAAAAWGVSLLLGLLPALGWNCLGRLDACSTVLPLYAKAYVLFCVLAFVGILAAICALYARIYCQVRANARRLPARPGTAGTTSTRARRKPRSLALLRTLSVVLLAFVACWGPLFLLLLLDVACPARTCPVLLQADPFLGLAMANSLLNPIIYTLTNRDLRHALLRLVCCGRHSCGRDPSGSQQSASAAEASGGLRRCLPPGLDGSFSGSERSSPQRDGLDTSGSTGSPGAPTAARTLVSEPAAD
S1P2 receptor, sequence (O95136 whole entry): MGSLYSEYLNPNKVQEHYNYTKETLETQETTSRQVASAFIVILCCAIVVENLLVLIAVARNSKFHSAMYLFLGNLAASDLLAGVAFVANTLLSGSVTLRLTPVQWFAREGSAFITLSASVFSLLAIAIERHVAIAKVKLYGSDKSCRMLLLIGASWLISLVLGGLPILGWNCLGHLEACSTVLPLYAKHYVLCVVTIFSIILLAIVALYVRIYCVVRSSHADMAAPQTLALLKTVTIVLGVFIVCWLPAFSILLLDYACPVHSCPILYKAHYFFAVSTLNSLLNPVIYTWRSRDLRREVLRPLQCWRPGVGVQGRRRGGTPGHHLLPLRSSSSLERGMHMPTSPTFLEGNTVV

As usually defined, the IC50 is the concentration at which inhibition is half-maximal. Broadly, the microsomal CLint is a measure of how fast metabolising enzymes remove a compound, apart from limits set by blood flow. Lower therefore signals slow turnover. As a reminder, the half-life is the time in which the quantity being followed falls by half. A high value points to slow decline. For `Cc1nn(C)c2nc(N(CC(=O)O)NC(=O)Nc3cc(Cl)nc(Cl)c3)cc(C(C)C)c12` [Compound 2], the “plasma protein binding (in words)” value in series [1] (compared with JTE013 and compound 1) is recorded as “lower plasma protein binding”. Besides, in series [1], the “mean fraction bound (%)” value came to 77.0%. Besides, the IC50 on S1P2 receptor worked out at 11 nM; on S1P5 receptor, 3.2 nM. The “stability in liver microsomes (in words)” value in series [2] (compared with JTE013) is “much more stable in liver microsomes”. In addition, the microsomal CLint at 1 μM came to 20 µL/min/mg in series [2] (NADPH-dependent Clint (microsomal intrinsic clearance)) and 9 µL/min/mg in series [2] (NADPH-free Clint (microsomal intrinsic clearance)). Also, the half-life at 1 μM in series [2] (NADPH-dependent T1/2 (half-life)) was 1.88 h; in series [2] (NADPH-free T1/2 (half-life)), over 3 h.

As to `Cc1nn(C)c2nc(N(CCO)NC(=O)Nc3cnc(Cl)c(Cl)c3)cc(C(C)C)c12` [Compound 40], the IC50 on S1P2 receptor was 300 nM; at S1P5 receptor, over 10000 nM.

In the case of `COCCOc1cc(NC(=O)NN(CCO)c2cc(C(C)C)c3c(C)nn(C)c3n2)cc(Cl)n1` [Compound 37], the figures for the IC50 on S1P2 receptor and on S1P5 receptor were 160 nM and over 10000 nM, respectively.

In the case of `Cc1sc(NC(=O)NN(CCO)c2cc(C(C)C)c3c(C)nn(C)c3n2)cc1Cl` [Compound 43], the half-maximal inhibitory concentration (IC50) on S1P2 receptor is 360 nM; at S1P5 receptor, over 10000 nM.

Consider `C=CCn1nc(C)c2c(C(F)(F)F)cc(NNC(=O)Nc3cc(Cl)nc(Cl)c3)nc21` [Compound 5], for which the IC50 at S1P2 receptor and at S1P5 receptor was over 10000 nM each time.

For the compound `CCCOc1cc(NC(=O)NN(CCO)c2cc(C(C)C)c3c(C)nn(C)c3n2)cc(Cl)n1` [Compound 36], the IC50 amounted to 10 nM on S1P2 receptor and 33 nM on S1P5 receptor.

In the case of `CCNc1cc(NC(=O)NN(CCO)c2cc(C(C)C)c3c(C)nn(C)c3n2)cc(Cl)n1` [Compound 38], the IC50 at S1P2 receptor is 4 nM; at S1P5 receptor, 4.6 nM.

On to `C=CCn1nc(C)c2c(C(C)C)cc(ONC(=O)Nc3cc(Cl)nc(Cl)c3)nc21` [Compound 6], for which the IC50 came out at 52 nM at S1P2 receptor and 8.7 nM on S1P5 receptor.

On to `CC(C)c1cc(NNC(=O)Nc2cc(Cl)nc(Cl)c2)nc2c(CCCO)nn(C)c12` [Compound 33], for which the values for the half-maximal inhibitory concentration (IC50) on S1P2 receptor and on S1P5 receptor were 5 nM and under 10 nM, respectively.

In the case of `Cc1nn(C)c2nc(N(CCO)NC(=O)Nc3cc(Cl)nc(Cl)c3)cc(C(C)C)c12` [Compound 9, N-(2,6-Dichloropyridin-4-yl)-2-(2-hydroxyethyl)-2-(4-isopropyl-1,3-dimethyl-1H-pyrazolo[3,4-b]pyridin-6-yl)hydrazine-1-carboxamide], the figures for the IC50 at S1P2 receptor and on S1P5 receptor were 7 nM and 20.9 nM, respectively.

With `CCN(C)c1cc(NC(=O)NN(CCO)c2cc(C(C)C)c3c(C)nn(C)c3n2)cc(Cl)n1` [Compound 39], the IC50 was found to be 19 nM on S1P2 receptor and 40 nM on S1P5 receptor.

In the case of `CCOc1cc(NC(=O)NN(CCO)c2cc(C(C)C)c3c(C)nn(C)c3n2)cc(Cl)n1` [Compound 35], the results for the IC50 at S1P2 receptor and at S1P5 receptor were 29 nM and 13 nM, respectively.

`Cc1nn(C)c2nc(N(CCO)NC(=O)Nc3cc(Cl)cc(C(F)(F)F)c3)cc(C(C)C)c12` [Compound 44]: the half-inhibitory concentration (IC50) was over 120 nM at S1P2 receptor and 74 nM at S1P5 receptor.

With `C=CCn1nc(C)c2c(C(C)C)cc(NNC(=O)Nc3cc(Cl)nc(Cl)c3)nc21` [Compound 27], the values for the 50% inhibitory concentration (IC50) on S1P2 receptor and on S1P5 receptor were 75 nM and 165 nM, respectively.

`C=CCn1nc(C)c2c(C(C)C)cc(N(CC(=O)O)NC(=O)Nc3cc(Cl)nc(Cl)c3)nc21` [Compound 3]: the IC50 on S1P2 receptor is 3000 nM; on S1P5 receptor, 5700 nM.

Consider `CC(C)NCC(O)COc1cccc2ccccc12` (centres unmarked) [Propanolol, reference compound], for which the “mean fraction bound (%)” value in series [1] came to 87.4%.

In the case of `Cc1nn(C)c2nc(N(CCO)NC(=O)Nc3ccc(Cl)nc3Cl)cc(C(C)C)c12` [Compound 41], the IC50 on S1P2 receptor and on S1P5 receptor was over 10000 nM each time.

On to `Cc1nn(C)c2nc(N(CCO)NC(=O)Nc3cc(Cl)no3)cc(C(C)C)c12` [Compound 45], for which the IC50 at S1P2 receptor and on S1P5 receptor was over 10000 nM in each case.

For the compound `Cc1nn(C)c2nc(N(CCO)NC(=O)Nc3cc(Cl)c(Cl)s3)cc(C(C)C)c12` [Compound 42], the IC50 on S1P2 receptor is 64 nM; at S1P5 receptor, 290 nM.
